Laboratory results published in a melting point compilation (Tetko et al.; mined from patent text by program, amines drawn as free bases though some values may be those of a salt).

Row | Structure (SMILES) | melting point [°C]
1 | CC(C)CC(NC(=O)C(C)CS)C(=O)O (stereo unspecified) | 66 to 71
2 | NC(=O)CC(=O)c1ccc(-c2ccc(Cl)cc2)o1 | 180 to 181
3 | CCN(CC)C(=O)N1CCC(C(O)(c2ccc(Cl)cc2)c2ccc(Cl)cc2)CC1 | 172 to 175
4 | COc1cc(C(=O)Nc2c(C)cccc2C)nn1C | 144
5 | N#Cc1cc(-c2ccccc2)[nH]c1Sc1ccc(N)cc1 | 146 to 147
6 | O=C(c1cccs1)c1cnn2c(-c3cccc(OC4CCCC4)c3)ccnc12 | 135 to 138
7 | O=C(O)CCC(=O)c1cccc(Cl)c1 | 105 to 107
8 | COc1ccc(N2CCN(c3c(C)c(C)c4c(c3C)C(c3ccc(C(F)(F)F)cc3)C(C)(C)O4)CC2)cc1 (stereo unspecified) | 208 to 211
9 | CCC1CC(=O)N(Cc2cccc(NC(C)=O)c2)N=C1c1ccc(OC)c(OC)c1 (stereo unspecified) | 142
10 | O=C(O)c1ccc2c(c1)CCC(CO)O2 (stereo unspecified) | 150
11 | NC(=S)NN=C(CCCNC(=O)C1CCCCC1)c1ccccc1 | 158 to 159
12 | COC(=O)C1(O)CCCC(=O)C1N=Nc1ccccc1 (stereo unspecified) | 144
13 | CC(=O)NCC1=CC(c2ccccc2)Cc2c1ccc(O)c2O (stereo unspecified) | 238
14 | CS(=O)CC(=O)c1cc(C(C)(C)C)c(O)c(C(C)(C)C)c1 (stereo unspecified) | 144 to 145
15 | CCCCc1nc2c(N)nc3cccnc3c2n1CCNC(=O)c1cc(C(C)(C)C)c(O)c(C(C)(C)C)c1 | 248 to 250
16 | CCCCn1nc(Cc2ccc(-c3ccccc3-c3nnn[nH]3)cc2)c(C(=O)O)c1CC | 191 to 192
17 | COC(=O)C(=O)c1ccc(OCc2ccc3ccccc3n2)cc1 | 109 to 110
18 | Cc1nc2cnccc2n1-c1ccc(O)cc1 | 265 to 267
19 | O=C(NC[C@@H](O)C(=O)O)OCC1c2ccccc2-c2ccccc21 | 165 to 166
20 | Nc1cc(OCc2cccc(I)c2)c(C(=O)NC2CN3CCC2CC3)cc1Cl (stereo unspecified) | 102 to 104
21 | CCOC(=O)c1cn(-c2nc(OC)c(F)cc2F)c2c(Cl)c(F)c(F)cc2c1=O | 140 to 143
22 | COC(=O)c1cc(-c2ccc(OC)c(OC)c2)nn(CC(C)C)c1=O | 104 to 106
23 | Cc1cn(-c2cccc([N+](=O)[O-])c2)cn1 | 119 to 120
24 | O=Cc1ccc(-c2ccc(OCc3ccccc3)cc2)cc1 | 122 to 123
25 | FC(F)(F)c1ccc2nc(N3CCN(c4c(Cl)cccc4Cl)CC3)[nH]c2c1 | 263 to 265
26 | N#Cc1c(NCc2ccc(N)cc2)n[nH]c1N | 168 to 170

Row | Structure (SMILES) | melting point [°C]
27 | O=[N+]([O-])c1ccc2c(c1)CC(O)c1ccccc1S2 (stereo unspecified) | 144 to 146
28 | Clc1cccc(Nc2ncnc3[nH]nc(NCc4cccnc4)c23)c1 | 204 to 206
29 | CS(=O)c1cccc2c1C(=O)N1CCCC1c1c(C(=O)OC(C)(C)C)ncn1-2 (stereo unspecified) | 224 to 225
30 | COc1cc2c(-c3ccccc3)csc2c(Cl)c1Cl | 117 to 119
31 | O=C(Nc1cnc(-c2ccccc2)nc1C(=O)O)OCc1ccc(-c2ccccc2)cc1 | 173
32 | CC(NC(=O)c1ccc(N)cc1)C(=O)O (stereo unspecified) | 198 to 199
33 | CCOC1Nc2c(ccc(C)c2O)C(=O)N2CCCC12 (stereo unspecified) | 155 to 157
34 | C=CCOc1c(N)cc2c(C)cc(=O)oc2c1C | 146 to 147
35 | COC(=O)c1c[nH]c(Sc2cc(Cl)c(Cl)cc2Cl)c1 | 165 to 175
36 | CCCCCCCCCCNC(=O)N(C)O | 74 to 76
37 | Fc1ccc(-c2cc(Cl)c3sccc3n2)cc1 | 119 to 121
38 | CCc1ncnc(NC2CCc3cc(O)ccc3C2)c1Cl (stereo unspecified) | 178
39 | CCCCS(=O)c1ccc(C(=O)OC)nc1 (stereo unspecified) | 150 to 154
40 | CC(C)(C)OC(=O)NCCCC(COC(=O)Oc1ccc([N+](=O)[O-])cc1)NC(=O)OCC1c2ccccc2-c2ccccc21 (stereo unspecified) | 140 to 142
41 | CC(C)(Br)C(=O)NOCc1ccccc1 | 88.6 to 91.1
42 | Cc1nc(-c2ccc(C=CC3(O)CN4CCC3CC4)cc2)no1 (stereo unspecified) | 188 to 189
43 | Cc1cc(-c2ccc(-c3ccco3)cc2)n(-c2ccc(S(N)(=O)=O)cc2)c1 | 153 to 155
44 | CS(=O)(=O)c1ccc(Oc2ccc(Cl)c(Cl)c2)c(C#N)c1 | 162 to 163
45 | O=C(O)C1CCc2c(c3cc(OCc4ccccc4)ccc3n2C(=O)c2ccccc2)C1 (stereo unspecified) | 193 to 194
46 | COc1ccc2c(c1)Sc1c(cc(OC)c(O)c1Br)N2 | 185
47 | CCCCCOc1ccc(C#CC2(O)CN3CCC2CC3)cc1 (stereo unspecified) | 153 to 154
48 | Cc1nc(N2CCN(CC3CC3(F)F)C2=O)sc1-c1cc[nH]n1 (stereo unspecified) | 227 to 230
49 | CCC(=O)NC(=O)C(CC)(OC(=O)CC)C(=O)NC(=O)CC | 90
50 | NC(=O)CNC(=O)c1cccc(-c2cccc3sc(Cc4ccc(F)c(F)c4)cc23)c1 | 160 to 161
51 | Nc1ccc(C2Sc3ccccc3C=C2c2ccc3c(c2)NC(=O)CO3)cc1 (stereo unspecified) | 186 to 189
